This note sets out measurements from ChEMBL document CHEMBL2390930, “Design, synthesis and evaluation of 1,2-benzisothiazol-3-one derivatives as potent caspase-3 inhibitors” (Bioorg Med Chem, 2013).

Some results are limits rather than exact numbers.

The target in the test is T1, Caspase-3 (Homo sapiens, UniProt P42574).
T1 sequence (P42574 whole entry): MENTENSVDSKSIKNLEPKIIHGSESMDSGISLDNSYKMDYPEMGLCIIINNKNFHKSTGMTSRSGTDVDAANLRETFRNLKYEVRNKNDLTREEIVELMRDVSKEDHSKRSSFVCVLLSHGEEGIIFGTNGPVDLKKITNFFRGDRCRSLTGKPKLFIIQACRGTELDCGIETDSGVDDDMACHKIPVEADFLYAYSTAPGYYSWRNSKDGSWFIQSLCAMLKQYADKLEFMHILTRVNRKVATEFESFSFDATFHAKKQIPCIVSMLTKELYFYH
The experiment in a line: Inhibition of recombinant human caspase-3 using Ac-LDEVD-AMC as substrate assessed as accumulation of 7-AMC incubated for 10 mins followed by substrate addition measured for 10 mins by fluorimetric analysis.
The term IC50 denotes the midpoint of a concentration-inhibition curve. In the case of `Cc1ccc(-n2sc3ccccc3c2=O)cc1`, the IC50 was found to be 466 nM. For `O=C(NCc1ccccc1)n1sc2ccccc2c1=O`, the half-maximal inhibitory concentration (IC50) is 86 nM. As for `Cn1sc2ccccc2c1=O`, the half-inhibitory concentration (IC50) was 42400 nM. For `O=c1c2ccccc2sn1-c1ccccc1`, the half-maximal inhibitory concentration (IC50) came out at 533 nM. For the molecule `O=C(Nc1ccc(I)cc1)n1sc2ccccc2c1=O`, the half-maximal inhibitory concentration (IC50) is more than 100000 nM.
